Our source for the IC50 values is patent US8895733B2 (Novartis AG, priority 2010, dated 2014).

Molecules are shown by their SMILES.

T1 sequence (Q15858 whole entry): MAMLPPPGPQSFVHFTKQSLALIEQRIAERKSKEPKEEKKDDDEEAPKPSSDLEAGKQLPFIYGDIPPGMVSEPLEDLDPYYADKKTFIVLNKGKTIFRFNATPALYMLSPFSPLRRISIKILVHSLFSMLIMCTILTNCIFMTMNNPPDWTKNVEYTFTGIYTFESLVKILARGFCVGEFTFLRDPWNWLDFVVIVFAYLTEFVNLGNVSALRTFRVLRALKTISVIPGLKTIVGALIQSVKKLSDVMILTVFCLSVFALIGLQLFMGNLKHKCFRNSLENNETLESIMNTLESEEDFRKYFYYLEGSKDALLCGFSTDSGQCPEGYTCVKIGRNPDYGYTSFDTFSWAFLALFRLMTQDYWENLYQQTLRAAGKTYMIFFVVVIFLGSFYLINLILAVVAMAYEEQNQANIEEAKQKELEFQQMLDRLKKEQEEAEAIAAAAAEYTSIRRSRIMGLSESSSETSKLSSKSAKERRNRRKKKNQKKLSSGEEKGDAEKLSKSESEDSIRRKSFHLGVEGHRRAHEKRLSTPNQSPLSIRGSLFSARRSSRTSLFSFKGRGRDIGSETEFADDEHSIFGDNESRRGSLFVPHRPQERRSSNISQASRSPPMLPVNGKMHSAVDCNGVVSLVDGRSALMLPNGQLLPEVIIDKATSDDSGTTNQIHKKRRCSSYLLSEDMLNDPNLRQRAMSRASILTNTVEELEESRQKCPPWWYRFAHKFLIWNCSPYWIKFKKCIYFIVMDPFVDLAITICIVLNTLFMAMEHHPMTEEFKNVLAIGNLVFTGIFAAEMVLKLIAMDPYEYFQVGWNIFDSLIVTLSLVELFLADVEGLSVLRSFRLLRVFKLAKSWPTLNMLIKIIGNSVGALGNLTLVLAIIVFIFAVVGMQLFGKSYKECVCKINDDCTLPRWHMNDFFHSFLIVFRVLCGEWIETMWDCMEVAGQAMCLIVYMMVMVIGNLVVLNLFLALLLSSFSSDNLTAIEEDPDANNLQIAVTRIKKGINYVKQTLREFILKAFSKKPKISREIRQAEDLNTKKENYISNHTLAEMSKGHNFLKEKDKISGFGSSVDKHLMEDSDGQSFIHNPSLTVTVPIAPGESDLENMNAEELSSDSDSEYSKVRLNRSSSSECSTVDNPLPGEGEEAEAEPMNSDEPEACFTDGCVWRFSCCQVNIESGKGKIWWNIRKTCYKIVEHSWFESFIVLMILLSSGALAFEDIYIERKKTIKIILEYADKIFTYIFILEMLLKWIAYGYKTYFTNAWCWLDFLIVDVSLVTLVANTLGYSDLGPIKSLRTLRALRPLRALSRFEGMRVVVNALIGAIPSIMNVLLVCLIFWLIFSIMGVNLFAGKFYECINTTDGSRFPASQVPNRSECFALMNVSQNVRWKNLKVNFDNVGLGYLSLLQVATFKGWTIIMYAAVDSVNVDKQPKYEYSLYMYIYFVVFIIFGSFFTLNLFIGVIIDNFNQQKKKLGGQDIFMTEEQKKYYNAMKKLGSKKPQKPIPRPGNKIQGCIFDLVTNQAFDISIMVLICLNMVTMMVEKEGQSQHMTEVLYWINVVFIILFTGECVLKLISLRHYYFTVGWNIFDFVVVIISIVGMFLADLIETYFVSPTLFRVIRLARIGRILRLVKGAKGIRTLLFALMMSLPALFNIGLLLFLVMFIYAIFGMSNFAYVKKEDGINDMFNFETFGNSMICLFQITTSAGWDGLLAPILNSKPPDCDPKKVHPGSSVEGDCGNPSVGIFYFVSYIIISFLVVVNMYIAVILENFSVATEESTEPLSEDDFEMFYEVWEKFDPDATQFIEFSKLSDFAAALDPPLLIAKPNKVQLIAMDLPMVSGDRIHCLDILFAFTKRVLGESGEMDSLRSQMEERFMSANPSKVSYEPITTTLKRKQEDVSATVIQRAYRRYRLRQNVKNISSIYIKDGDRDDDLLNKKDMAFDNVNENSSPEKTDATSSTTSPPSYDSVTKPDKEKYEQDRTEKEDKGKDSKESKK

The first assay concerns the target T1, Nav 1.7 (Homo sapiens, UniProt Q15858).
T1 construct: expressed in transfected cells
Put plainly: Whole-cell voltage clamp electrophysiology, automated patch clamp (marker c in Table of Examples). The assay is classed as cell-based. The following applies: marker c = Automated patch clamp data; read-out: Nav 1.7 activity. Put shortly:
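A voltage protocol weighted toward inactivated-state block was used to test compounds on stably expressing cells, with pulses from −65 mV holding to −10 mV test and −100 mV. Currents came from whole-cell automated patch-clamp recordings, either IonWorks Quattro or other automated instruments, usually in perforated-patch mode.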
For orientation: Patch clamp records ionic current or voltage across a cell membrane.
`CN(c1ccccc1)c1nc(N)nc(-c2noc(C3CCN(S(=O)(=O)CC(F)(F)F)C3)n2)n1` (centres unmarked) [Example 202, 2-N-methyl-2-N-phenyl-6-(5-{1-[(2,2,2-trifluoroethane)sulfonyl]pyrrolidin-3-yl}-1,2,4-oxadiazol-3-yl)-1,3,5-triazine-2,4-diamine]: the IC50 turned out to be 1790 nM.
Same read-out and setting: as for `NC(=O)c1nc(-c2nc(N)nc(Nc3cccc(F)c3)n2)no1` [Example 223, 3-{4-amino-6-[(3-fluorophenyl)amino]-1,3,5-triazin-2-yl}-1,2,4-oxadiazole-5-carboxamide], the figure is 6500 nM.
Same read-out and setting: as for `CN(c1cccc(F)c1)c1nc(N)nc(-c2noc(-c3ccc(OCC(F)(F)F)nc3)n2)n1` [Example 407, 2-N-(3-fluorophenyl)-2-N-methyl-6-{5-[6-(2,2,2-trifluoroethoxy)pyridin-3-yl]-1,2,4-oxadiazol-3-yl}-1,3,5-triazine-2,4-diamine], the figure is 201 nM; as for `Cc1ncc(-c2nc(-c3nc(N)nc(N(C)c4ccccc4)n3)no2)cn1` [Example 467, 2-N-methyl-6-[5-(2-methylpyrimidin-5-yl)-1,2,4-oxadiazol-3-yl]-2-N-phenyl-1,3,5-triazine-2,4-diamine], 9930 nM; as for `CN(c1ccccc1)c1nc(N)nc(-c2noc(-c3ccc([S+]([O-])CC4CC4)nc3)n2)n1` (centres unmarked) [Example 456, 6-{5-[6-(cyclopropylmethane)sulfinylpyridin-3-yl]-1,2,4-oxadiazol-3-yl}-2-N-methyl-2-N-phenyl-1,3,5-triazine-2,4-diamine], 310 nM.
On the same count and under the same terms, as for `Nc1nc(Nc2ccccc2)nc(-c2noc(N3CC(Oc4ccccc4)C3)n2)n1` [Example 503, 6-[5-(3-phenoxyazetidin-1-yl)-1,2,4-oxadiazol-3-yl]-2-N-phenyl-1,3,5-triazine-2,4-diamine], the figure is 461 nM.
`CN(c1ccccc1)c1nc(N)nc(-c2noc(-c3n[nH]cc3Br)n2)n1` [Example 251, 6-[5-(4-bromo-1H-pyrazol-3-yl)-1,2,4-oxadiazol-3-yl]-2-N-methyl-2-N-phenyl-1,3,5-triazine-2,4-diamine]: the IC50 worked out at 2530 nM.
The same measure, in the same setting: as for `CN(c1ccccc1)c1nc(N)nc(-c2noc(C3CCC(O)CC3)n2)n1` (centres unmarked) [Example 424, 4-(3-{4-amino-6-[methyl(phenyl)amino]-1,3,5-triazin-2-yl}-1,2,4-oxadiazol-5-yl)cyclohexan-1-ol], the figure is 2810 nM; as for `CN(c1ccccc1)c1nc(N)nc(-c2noc(-c3cccnc3C(=O)NCC(F)(F)F)n2)n1` [Example 375, 3-(3-{4-amino-6-[methyl(phenyl)amino]-1,3,5-triazin-2-yl}-1,2,4-oxadiazol-5-yl)-N-(2,2,2-trifluoroethyl)pyridine-2-carboxamide], 1510 nM; as for `Nc1nc(Nc2cccc(Cl)c2F)nc(-c2noc(-c3ccccn3)n2)n1` [Example 264, 2-N-(3-Chloro-2-fluorophenyl)-6-[5-(pyridin-2-yl)-1,2,4-oxadiazol-3-yl]-1,3,5-triazine-2,4-diamine], 774 nM.
The same measure, in the same setting: as for `CN(c1ccccc1)c1nc(N)nc(-c2noc(N3CCN(S(=O)(=O)N(C)C)CC3)n2)n1` [Example 388, 4-(3-{4-amino-6-[methyl(phenyl)amino]-1,3,5-triazin-2-yl}-1,2,4-oxadiazol-5-yl)-N,N-dimethylpiperazine-1-sulfonamide], the figure is 2810 nM; as for `CN(c1ccccc1)c1nc(N)nc(-c2noc(N3CC(Oc4ccccn4)C3)n2)n1` [Example 499, 2-N-methyl-2-N-phenyl-6-{5-[3-(pyridin-2-yloxy)azetidin-1-yl]-1,2,4-oxadiazol-3-yl}-1,3,5-triazine-2,4-diamine], 4590 nM; as for `CN(c1ccccc1)c1nc(N)nc(-c2noc(-c3cccnc3C(=O)NCC3CC3)n2)n1` [Example 370, 3-(3-{4-amino-6-[methyl(phenyl)amino]-1,3,5-triazin-2-yl}-1,2,4-oxadiazol-5-yl)-N-(cyclopropylmethyl)pyridine-2-carboxamide], 3510 nM.
Same read-out and setting: as for `Nc1nc(Nc2ccccc2)nc(-c2noc(N3CCC(COCC4CC4)CC3)n2)n1` [Example 214, 6-(5-{4-[(cyclopropylmethoxy)methyl]piperidin-1-yl}-1,2,4-oxadiazol-3-yl)-2-N-phenyl-1,3,5-triazine-2,4-diamine], the figure is 233 nM; as for `CN(c1ccccc1)c1nc(N)nc(-c2noc(-c3cccnn3)n2)n1` [Example 479, 2-N-methyl-2-N-phenyl-6-[5-(pyridazin-3-yl)-1,2,4-oxadiazol-3-yl]-1,3,5-triazine-2,4-diamine], 1140 nM; as for `CC(=O)c1ccc(-c2nc(-c3nc(N)nc(N(C)c4ccccc4)n3)no2)cn1` [Example 304, 1-[5-(3-{4-Amino-6-[methyl(phenyl)amino]-1,3,5-triazin-2-yl}-1,2,4-oxadiazol-5-yl)pyridin-2-yl]ethan-1-one], 746 nM.
Take `CN(c1ccccc1)c1nc(N)nc(-c2noc(-c3nc(C(F)(F)F)cs3)n2)n1` [Example 345, 2-N-methyl-2-N-phenyl-6-{5-[4-(trifluoromethyl)-1,3-thiazol-2-yl]-1,2,4-oxadiazol-3-yl}-1,3,5-triazine-2,4-diamine]: the IC50 worked out at 1970 nM.
Still for that read-out and setting: as for `CN(c1ccccc1)c1nc(N)nc(-c2noc(-c3cccc(N4CCOCC4)n3)n2)n1` [Example 270, 2-N-methyl-6-{5-[6-(morpholin-4-yl)pyridin-2-yl]-1,2,4-oxadiazol-3-yl}-2-N-phenyl-1,3,5-triazine-2,4-diamine], the figure is 3650 nM.
The same measure, in the same setting: as for `Nc1nc(Nc2ccccc2)nc(-c2noc(N3C[C@@H]4[C@@H](COCC(F)(F)F)[C@@H]4C3)n2)n1` [Example 390, 2-N-phenyl-6-{5-[6-[(2,2,2-trifluoroethoxy)methyl]-3-azabicyclo[3.1.0]hexan-3-yl]-1,2,4-oxadiazol-3-yl}-1,3,5-triazine-2,4-diamine], the figure is 702 nM.
Same read-out and setting: as for `CN(c1ccccc1)c1nc(N)nc(-c2noc(-c3ccc(COCC(F)(F)F)cc3)n2)n1` [Example 351, 2-N-methyl-2-N-phenyl-6-(5-{4-[(2,2,2-trifluoroethoxy)methyl]phenyl}-1,2,4-oxadiazol-3-yl)-1,3,5-triazine-2,4-diamine], the figure is 11 nM.

The assay is the same for the next values; noted with them: marker c: Automated patch clamp data; read-out: Nav 1.7 activity.
`CC(C)[S+]([O-])CC1CCN(c2nc(-c3nc(N)nc(N(C)c4ccccc4)n3)no2)CC1` (centres unmarked) [Example 180, 2-N-methyl-2-N-phenyl-6-(5-{4-[(propane-2-sulfinyl)methyl]piperidin-1-yl}-1,2,4-oxadiazol-3-yl)-1,3,5-triazine-2,4-diamine]: the IC50 was over 7710 nM.
Consider `COc1ccsc1-c1nc(-c2nc(N)nc(N(C)c3ccccc3)n2)no1` [Example 74, 6-[5-(3-Methoxy-thiophen-2-yl)-[1,2,4]oxadiazol-3-yl]-N-methyl-N-phenyl-[1,3,5]triazine-2,4-diamine], for which the IC50 was determined as 1410 nM.
Still for that read-out and setting: as for `CN(c1ccccc1)c1nc(N)nc(-c2noc(-c3ncccc3OCC(F)(F)F)n2)n1` [Example 42, N-Methyl-N-phenyl-6-{5-[3-(2,2,2-trifluoro-ethoxy)-pyridin-2-yl]-[1,2,4]oxadiazol-3-yl}-[1,3,5]triazine-2,4-diamine], the figure is 1410 nM.
Turning to `Cc1cccc(N(C)c2nc(N)nc(-c3noc(-c4cccs4)n3)n2)c1` [Example 93, N-Methyl-6-(5-thiophen-2-yl-[1,2,4]oxadiazol-3-yl)-N-m-tolyl-[1,3,5]triazine-2,4-diamine], the IC50 came to 931 nM.
Still for that read-out and setting: as for `CCN(c1ccccc1)c1nc(N)nc(-c2noc(-c3cccs3)n2)n1` [Example 96, N-Ethyl-N-phenyl-6-(5-thiophen-2-yl-[1,2,4]oxadiazol-3-yl)-[1,3,5]triazine-2,4-diamine], the figure is 518 nM; as for `CS(=O)(=O)c1cccc(Nc2nc(N)nc(-c3noc(-c4ccc(OCC(F)(F)F)nc4)n3)n2)c1` [Example 189, 2-N-(3-methanesulfonylphenyl)-6-{5-[6-(2,2,2-trifluoroethoxy)pyridin-3-yl]-1,2,4-oxadiazol-3-yl}-1,3,5-triazine-2,4-diamine], 287 nM; as for `CC(C)S(=O)(=O)N1CCC(c2nc(-c3nc(N)nc(N(C)c4ccccc4)n3)no2)CC1` [Example 171, 2-N-methyl-2-N-phenyl-6-{5-[1-(propane-2-sulfonyl)piperidin-4-yl]-1,2,4-oxadiazol-3-yl}-1,3,5-triazine-2,4-diamine], 254 nM.
On the same count and under the same terms, as for `COc1cccc(-c2nc(-c3nc(N)nc(N(C)c4cccc(Cl)c4)n3)no2)c1` [Example 83, N-(3-Chloro-phenyl)-6-[5-(3-methoxy-phenyl)-[1,2,4]oxadiazol-3-yl]-N-methyl-[1,3,5]triazine-2,4-diamine], the figure is 691 nM; as for `COc1ccccc1-c1nc(-c2nc(N)nc(N(C)c3cccc(F)c3)n2)no1` [Example 98, N-(3-Fluoro-phenyl)-6-[5-(2-methoxy-phenyl)-[1,2,4]oxadiazol-3-yl]-N-methyl-[1,3,5]triazine-2,4-diamine], 318 nM; as for `CN(c1ccccc1)c1nc(N)nc(-c2noc(-c3cccnc3N)n2)n1` [Example 53, 6-[5-(2-Amino-pyridin-3-yl)-[1,2,4]oxadiazol-3-yl]-N-methyl-N-phenyl-[1,3,5]triazine-2,4-diamine], 703 nM.
Same read-out and setting: as for `CN(c1ccccc1)c1nc(N)nc(-c2noc(N3CCC(CSCC(F)(F)F)CC3)n2)n1` [Example 175, 2-N-methyl-2-N-phenyl-6-[5-(4-{[(2,2,2-trifluoroethyl)sulfanyl]methyl}piperidin-1-yl)-1,2,4-oxadiazol-3-yl]-1,3,5-triazine-2,4-diamine], the figure is 20 nM; as for `CCN(c1ccccc1)c1nc(N)nc(-c2noc(-c3ccc(C)o3)n2)n1` [Example 97, N-Ethyl-6-[5-(5-methyl-furan-2-yl)-[1,2,4]oxadiazol-3-yl]-N-phenyl-[1,3,5]triazine-2,4-diamine], 1300 nM.
